Experiments:
barnyardgrass [1] = assay: Test A pre-/postemergence herbicide test; type: in vivo, Echinochloa crus-galli
Procedure, shortened: (§1)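 Approximately 10 days after treatment in the greenhouse, plants were compared with untreated controls and given a 0–100 visual injury rating. Applications: preemergence directed soil spray; postemergence on 2–10 cm plants at the one- to two-leaf stage.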

giant foxtail = assay: Test A pre-/postemergence herbicide test; type: in vivo, Setaria faberii
Procedure, shortened: as §1

corn = assay: Test A pre-/postemergence herbicide test; type: in vivo, Zea mays
Procedure, shortened: as §1

sedge, umbrella = assay: Test B flooded paddy test; type: in vivo, Cyperus difformis; settings: 250 g ai/ha, Flood; scale of 0 to 100 where 0 is no effect and 100 is complete control
Procedure, shortened: (§2)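 In-water application to pots flooded 3 cm deep, plants at 2-leaf stage. Held in greenhouse 13–15 days at constant flood depth. Scored 0–100 by eye against controls.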

ducksalad = assay: Test B flooded paddy test; type: in vivo, Heteranthera limosa; settings: 250 g ai/ha, Flood; scale of 0 to 100 where 0 is no effect and 100 is complete control
Procedure, shortened: as §2

barnyardgrass [2] = assay: Test B flooded paddy test; type: in vivo, Echinochloa crus-galli; settings: 250 g ai/ha, Flood; scale of 0 to 100 where 0 is no effect and 100 is complete control
Procedure, shortened: as §2

blackgrass = assay: Test C pre-/postemergence herbicide test; type: in vivo, Alopecurus myosuroides; settings: for Blackgrass plant response rating: scale 0 to 100, 0 is no effect and 100 is complete control
Procedure, shortened: (§3)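 Plants grown and held in a greenhouse for 13 to 15 days post-spray, then rated 0–100 by visual comparison with controls. Pre treatments targeted seeds in loam and sand; post treatments targeted 1- to 4-leaf plants in peat-based potting medium.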

crabgrass, large = assay: Test C pre-/postemergence herbicide test; type: in vivo, Digitaria sanguinalis
Procedure, shortened: as §3

morningglory = assay: Test C pre-/postemergence herbicide test; type: in vivo, Ipomoea coccinea
Procedure, shortened: as §3

ragweed = assay: Test C pre-/postemergence herbicide test; type: in vivo, Ambrosia elatior
Procedure, shortened: as §3

soybean = assay: Test C pre-/postemergence herbicide test; type: in vivo, Glycine max
Procedure, shortened: as §3

barnyardgrass [3] = assay: Test C pre-/postemergence herbicide test; type: in vivo, Echinochloa crus-galli
Procedure, shortened: as §3

[4] = Postemergence, 125 g ai/ha, 0 to 100 scale, 0 no effect, 100 complete control
[5] = Postemergence, 500 g ai/ha, 0 to 100 scale (0 no effect, 100 complete control)
[6] = Preemergence, 125 g ai/ha, visual rating on 0 to 100 scale (0 no effect, 100 complete control)
[7] = preemergence, 500 g ai/ha, 0 to 100 scale
[8] = Postemergence, 31 g ai/ha, scale 0 (no effect) to 100 (complete control)
[9] = Postemergence, 62 g ai/ha, scale 0 to 100 (0 no effect, 100 complete control)
[10] = Postemergence, 125 g ai/ha, scale 0 to 100 (0 no effect, 100 complete control)
[11] = Postemergence, 250 g ai/ha, scale 0 to 100 (0 no effect, 100 complete control)
[12] = Preemergence, 62 g ai/ha, scale 0 to 100
[13] = Preemergence, 125 g ai/ha, scale 0 to 100 (0 no effect, 100 complete control)
[14] = Preemergence, 31 g ai/ha, scale 0 to 100, 0 is no effect and 100 is complete control
[15] = 125 g ai/ha, visual rating, 0 to 100 scale, 0 no effect, 100 complete control, approximately 10 days, preemergence
[16] = Postemergence, 125 g ai/ha, 0 to 100 scale, 0 is no effect, 100 is complete control
[17] = preemergence, 500 g ai/ha, 0 to 100 scale, 0 is no effect and 100 is complete control
[18] = Postemergence, 31 g ai/ha, scale 0 to 100 (0 no effect, 100 complete control)
[19] = Postemergence, 62 g ai/ha, scale 0 (no effect) to 100 (complete control)
[20] = Preemergence, 62 g ai/ha, scale 0 to 100 (0 no effect, 100 complete control)

In the case of O=C1NCC(c2ccccc2)C1C(=O)Nc1ccccc1F (racemic) [Compound 81], the “Plant response rating, Barnyardgrass” value (barnyardgrass [1]; [4]) is reported as 30, the “Plant response rating, Barnyardgrass” value (barnyardgrass [1]; [5]) is reported as 80 and the “Barnyardgrass plant response rating” value (barnyardgrass [1]; [6]) is reported as 40. For the same compound, the “Plant response rating, Barnyardgrass” value (barnyardgrass [1]; preemergence, 500 g ai/ha, 0 to 100 scale (0 no effect, 100 complete control)) was 80, the “Plant response rating, Foxtail, Giant” value (giant foxtail; [4]) was 20 and the “Plant response rating, Foxtail, Giant” value (giant foxtail; [5]) was 70. The “Foxtail, Giant plant response rating” value (giant foxtail; [6]) was 30, the “Plant response rating, Foxtail, Giant” value (giant foxtail; [7]) was 90 and the “Plant response rating, Corn” value (corn; [4]) was 0. For the same compound, the “Plant response rating, Corn” value (corn; [5]) was 0, the “Corn plant response rating” value (corn; [6]) was 0 and the “Plant response rating, Corn” value (corn; [7]) was 0. The “Plant response rating, Sedge, Umbrella” value (sedge, umbrella) was 0, the “Plant response rating, Ducksalad” value (ducksalad) was 70 and the “Plant response rating, Barnyardgrass” value (barnyardgrass [2]) was 20. For the same compound, the “Plant response rating, Blackgrass” value (blackgrass; [8]) was 0, the “Plant response rating, Blackgrass” value (blackgrass; [9]) was 0 and the “Plant response rating, Blackgrass” value (blackgrass; [10]) was 0. The “Plant response rating, Blackgrass” value (blackgrass; [11]) was 0, the “Blackgrass plant response rating” value (blackgrass; Preemergence, 31 g ai/ha) was 0 and the “Plant response rating, Blackgrass” value (blackgrass; [12]) was 0. The “Plant response rating, Blackgrass” value (blackgrass; [13]) was 0, the “Plant response rating (scale of 0 to 100), Blackgrass” value (blackgrass; Preemergence, 250 g ai/ha) was 0 and the “Plant response rating, Crabgrass, Large” value (crabgrass, large; [8]) was 0. For the same compound, the “Plant response rating, Crabgrass, Large” value (crabgrass, large; [9]) was 0, the “Plant response rating, Crabgrass, Large” value (crabgrass, large; [10]) was 3 and the “Plant response rating, Crabgrass, Large” value (crabgrass, large; [11]) was 7. For the same compound, the “Crabgrass, Large plant response rating” value (crabgrass, large; [14]) was 50, the “Plant response rating, Crabgrass, Large” value (crabgrass, large; [12]) was 75 and the “Plant response rating, Crabgrass, Large” value (crabgrass, large; [13]) was 90. The “Plant response rating (scale of 0 to 100), Crabgrass, Large” value (crabgrass, large; Preemergence, 250 g ai/ha) was 95, the “Plant response rating, Morningglory” value (morningglory; [8]) was 0 and the “Plant response rating, Morningglory” value (morningglory; [9]) was 0. The “Plant response rating, Morningglory” value (morningglory; [10]) was 0, the “Plant response rating, Morningglory” value (morningglory; [11]) was 0 and the “Morningglory plant response rating” value (morningglory; [14]) was 0. The “Plant response rating, Morningglory” value (morningglory; [12]) was 0, the “Plant response rating, Morningglory” value (morningglory; [13]) was 0 and the “Plant response rating (scale of 0 to 100), Morningglory” value (morningglory; Preemergence, 250 g ai/ha) was 0. For the same compound, the “Plant response rating, Ragweed” value (ragweed; [8]) was 0, the “Plant response rating, Ragweed” value (ragweed; [9]) was 0 and the “Plant response rating, Ragweed” value (ragweed; [10]) was 0. The “Plant response rating, Ragweed” value (ragweed; [11]) was 0, the “Ragweed plant response rating” value (ragweed; [14]) was 0 and the “Plant response rating, Ragweed” value (ragweed; [12]) was 0. The “Plant response rating, Ragweed” value (ragweed; [13]) was 0, the “Plant response rating (scale of 0 to 100), Ragweed” value (ragweed; Preemergence, 250 g ai/ha) was 0 and the “Plant response rating, Soybean” value (soybean; [8]) was 0. The “Plant response rating, Soybean” value (soybean; [9]) was 3, the “Plant response rating, Soybean” value (soybean; [10]) was 3 and the “Plant response rating, Soybean” value (soybean; [11]) was 8. The “Soybean plant response rating” value (soybean; [14]) was 0, the “Plant response rating, Soybean” value (soybean; [12]) was 0 and the “Plant response rating, Soybean” value (soybean; [13]) was 0. For the same compound, the “Plant response rating (scale of 0 to 100), Soybean” value (soybean; Preemergence, 250 g ai/ha) was 0.
In the case of O=C1NCC(c2cccc(C(F)(F)F)c2)C1C(=O)Nc1ccc(F)cc1F (racemic) [Compound 207], the “Plant response rating, Barnyardgrass” value (barnyardgrass [1]; [15]) is reported as 90, the “Plant response rating, Barnyardgrass” value (barnyardgrass [1]; [16]) is reported as 80 and the “Barnyardgrass plant response rating (0 to 100 scale, 0 is no effect, 100 is complete control)” value (barnyardgrass [1]; Postemergence, 500 g ai/ha) is reported as 90. For the same compound, the “Plant response rating, Barnyardgrass” value (barnyardgrass [1]; [17]) was 90, the “Plant response rating, Foxtail, Giant” value (giant foxtail; [15]) was 90 and the “Plant response rating, Foxtail, Giant” value (giant foxtail; [16]) was 90. The “Foxtail, Giant plant response rating (0 to 100 scale, 0 is no effect, 100 is complete control)” value (giant foxtail; Postemergence, 500 g ai/ha) was 90, the “Plant response rating, Foxtail, Giant” value (giant foxtail; [17]) was 90 and the “Plant response rating, Corn” value (corn; [16]) was 50. The “Corn plant response rating (0 to 100 scale, 0 is no effect, 100 is complete control)” value (corn; Postemergence, 500 g ai/ha) was 70, the “Plant response rating, Blackgrass” value (blackgrass; [18]) was 0 and the “Plant response rating, Blackgrass” value (blackgrass; [19]) was 0. For the same compound, the “Plant response rating, Blackgrass” value (blackgrass; [10]) was 0, the “Plant response rating, Blackgrass” value (blackgrass; [11]) was 0 and the “Blackgrass plant response rating” value (blackgrass; Preemergence, 31 g ai/ha) was 0. The “Plant response rating, Blackgrass” value (blackgrass; [12]) was 80, the “Plant response rating, Blackgrass” value (blackgrass; [13]) was 85 and the “Plant response rating (scale of 0 to 100), Blackgrass” value (blackgrass; Preemergence, 250 g ai/ha) was 90. The “Plant response rating, Crabgrass, Large” value (crabgrass, large; [18]) was 10, the “Plant response rating, Crabgrass, Large” value (crabgrass, large; [19]) was 15 and the “Plant response rating, Crabgrass, Large” value (crabgrass, large; [10]) was 40. For the same compound, the “Plant response rating, Crabgrass, Large” value (crabgrass, large; [11]) was 65, the “Crabgrass, Large plant response rating” value (crabgrass, large; [14]) was 90 and the “Crabgrass, Large plant response rating” value (crabgrass, large; [20]) was 90. For the same compound, the “Plant response rating, Crabgrass, Large” value (crabgrass, large; [13]) was 95, the “Plant response rating (scale of 0 to 100), Crabgrass, Large” value (crabgrass, large; Preemergence, 250 g ai/ha) was 95 and the “Plant response rating, Morningglory” value (morningglory; [18]) was 5. The “Plant response rating, Morningglory” value (morningglory; [19]) was 5, the “Plant response rating, Morningglory” value (morningglory; [10]) was 5 and the “Plant response rating, Morningglory” value (morningglory; [11]) was 20. The “Morningglory plant response rating” value (morningglory; [14]) was 0, the “Morningglory plant response rating” value (morningglory; [20]) was 0 and the “Plant response rating, Morningglory” value (morningglory; [13]) was 0. The “Plant response rating (scale of 0 to 100), Morningglory” value (morningglory; Preemergence, 250 g ai/ha) was 0, the “Plant response rating, Ragweed” value (ragweed; [18]) was 0 and the “Plant response rating, Ragweed” value (ragweed; [19]) was 0. For the same compound, the “Plant response rating, Ragweed” value (ragweed; [10]) was 0, the “Plant response rating, Ragweed” value (ragweed; [11]) was 15 and the “Ragweed plant response rating” value (ragweed; [14]) was 0. For the same compound, the “Ragweed plant response rating” value (ragweed; [20]) was 0, the “Plant response rating, Ragweed” value (ragweed; [13]) was 0 and the “Plant response rating (scale of 0 to 100), Ragweed” value (ragweed; Preemergence, 250 g ai/ha) was 5. The “Plant response rating, Soybean” value (soybean; [18]) was 0, the “Plant response rating, Soybean” value (soybean; [19]) was 5 and the “Plant response rating, Soybean” value (soybean; [10]) was 5. The “Plant response rating, Soybean” value (soybean; [11]) was 5, the “Soybean plant response rating” value (soybean; [14]) was 0 and the “Soybean plant response rating” value (soybean; [20]) was 0. The “Plant response rating, Soybean” value (soybean; [13]) was 0, the “Plant response rating (scale of 0 to 100), Soybean” value (soybean; Preemergence, 250 g ai/ha) was 0 and the “Plant response rating, Barnyardgrass” value (barnyardgrass [3]; [18]) was 0. For the same compound, the “Plant response rating, Barnyardgrass” value (barnyardgrass [3]; [19]) was 10, the “Plant response rating, Barnyardgrass” value (barnyardgrass [3]; [10]) was 35 and the “Plant response rating, Barnyardgrass” value (barnyardgrass [3]; [11]) was 65. The “Barnyardgrass plant response rating” value (barnyardgrass [3]; [14]) was 75, the “Plant response rating, Barnyardgrass” value (barnyardgrass [3]; [12]) was 85 and the “Plant response rating, Barnyardgrass” value (barnyardgrass [3]; [13]) was 85. The “Plant response rating (scale of 0 to 100; 0 is no effect, 100 is complete control), Barnyardgrass” value (barnyardgrass [3]; Preemergence, 250 g ai/ha) was 95.

Reference: patent US10294202B2, “Pyrrolidinones as herbicides” (FMC Corporation, priority 2013, dated 2019)
